# Reference: patent publication US20110059986A1, “INTERMITTENT DOSING REGIMEN FOR OVERWEIGHT AND OBESE SUBJECTS” (priority 2004, published 2011)
# Experiments:
# Format in all cases: in vivo
# [1] = tested on: obese Beagle dogs; test: Efficacy study with continuous administration of mitratapide during 8 weeks; details: oral
# Experimental: FIG. 1 is a graph displaying the results of an efficacy study wherein the apoB secretion/MTP inhibitor mitratapide was administered during 8 weeks to a group of obese Beagle dogs. The four curves illustrate the effect on body weight by plotting the ‘(%) body weight relative to the weight at the start’ when mitratapide was administered with a dosage of 0 mg per kg body weight (A curve), 0.16 mg per kg body weight (B curve), 0.31 mg per kg body weight (C curve) and 0.63 mg per kg body weight in function of the duration of the study.
# The efficacy of the apoB secretion/MTP inhibitor mitratapide for the reduction of body weight was studied in a blind, randomised study with 4 parallel groups of 6 dogs each. Three groups were treated orally with three different doses of mitratapide and one group was treated orally with the vehicle and served as a placebo group. The vehicle solution contained the same ingredients as the test formulations with omission of the test substance mitratapide.
# The treatment groups were:
# placebo group A treated orally with vehicle
# group B treated orally with 0.16 mg mitratapide per kg body weight
# group C treated orally with 0.31 mg mitratapide per kg body weight
# group D treated orally with 0.63 mg mitratapide per kg body weight
# The test subjects were healthy, male Beagle dogs with a body weight of 13.6 to 22.6 kg at the start of the experiment and between 1 and 8 years old. All dogs were treated orally using a 5 ml syringe, once daily, in the morning for a period of 8 weeks (56 days) depending on their body weight. Body weight was measured once weekly on days 0, 7, 14, 21, . . . up to day 56. The volume of test formulation was 1 ml per 4 kg body weight. The test formulation was an aqueous 10% hydroxypropyl-β-cyclodextrin solution containing no mitratapide, 0.63 mg mitratapide per ml, 1.25 mg mitratapide per ml or 2.5 mg mitratapide per ml. Each test subject had free access (in volume and time) to commercial dog feed (Bento Kronen Professional Power) and water during the 8 week study. […]
# [2] = tested on: obese Beagle dogs; test: 4 w-4 w-4 w intermittent dosing regimen study; details: 4 w-4 w-4 w regimen, 0.63 mg/kg oral once daily
# Experimental: Mitratapide was administered for a first period of four weeks at a dosage of 0.63 mg/kg body weight, withheld for four weeks and again administered for four weeks at a dosage of 0.63 mg/kg body weight. At day 29, the feeding was restricted from ad libitum access to food, to a maintenance diet having a caloric content equal to the caloric expenditure of the test subject.
# The effect of a 4 w-4 w-4 w intermittent dosing regimen on 15 obese Beagle dogs, with a body weight of 16% or more above optimal body weight, was studied. The dogs were treated with mitratapide oral solution at a daily single dose of 0.63 mg/kg body weight for two periods of 28 consecutive days (4 weeks) with an intermediate period of 28 consecutive days without treatment.
# The test formulation comprising mitratapide was an aqueous 10% hydroxypropyl-β-cyclodextrin solution containing 2.5 mg mitratapide per ml and was administered once daily in an amount of 1 ml per 4 kg body weight. The daily dose was mixed into a small portion of feed and presented to the dog. The rest of the feed was only provided after this portion was consumed. […] The test solution comprising mitratapide was no longer administered and the body weight of the animals was further monitored during the follow-up procedure ending on day 112. […] Body weight of each test animal was measured on days 0, 14, 28, 42, 56, 84 and 112. […]
# [3] = tested on: obese Beagle dogs; test: Comparison of 3 w-2 w-3 w and 4 w-4 w-4 w dosing regimen; details: 0.63 mg/kg oral gavage once daily
# Experimental: Thirty two healthy obese Beagle dogs of both sexes were included in a study of two different intermittent treatment regimens: a 3 w-2 w-3 w regimen and a 4 w-4 w-4 w regimen. At the start of the study, the dogs weighed between 12.5 and 26 kg which was considered as being more than 20% higher than the ideal body weight. The study was conducted in four groups, two treated groups containing 10 obese Beagle dogs and one placebo group containing 12 obese Beagle dogs. This placebo group of 12 dogs was subdivided in two sets of 6 dogs. One placebo group followed the 3 w-2 w-3 w regimen and the other placebo group the 4 w-4 w-4 w regimen.
# The test compound mitratapide was provided as a polyethylene glycol 400 (PEG 400) solution comprising 5 mg mitratapide per ml. The test solution was administered once daily in the morning by oral gavage. The volume of test formulations was 0.125 ml per kg body weight so that mitratapide was administered with a dosage of 0.63 mg/kg body weight. The body weight was measured weekly during the treatment periods to adjust the amount of test formulation. The placebo groups received water as the test formulation. Each test subject had free access (in volume and time) to commercial dog feed (Bento Kronen premium Regular dog pellets) during the first administration period. The first administration period was followed by a period during which administration of mitratapide was withheld. At the same time, the dogs were put on a maintenance diet having a caloric content equal to their caloric expenditure. […] At the start of the second administration period, the dogs were again administered a mitratapide solution with a dosage of 0.63 mg/kg body weight. The dogs were kept on the same maintenance diet as during the previous period. All dogs had free access to drinking water throughout the entire study. Body weight of each test animal was measured weekly on days 0, 7, 14, 21 and so on till day 84. The effect on body weight for each of the four dosage studies is plotted in FIG. 3. […] The reduction of body weight of the two placebo groups was less than 2% after 84 days.
smiles,measurement,setting,value
"CCC(C)n1ncn(-c2ccc(N3CCN(c4ccc(OCC5COC(CSc6nncn6C)(c6ccc(Cl)cc6)O5)cc4)CC3)cc2)c1=O (stereo not drawn) [mitratapide, (−)-[2S-[2α, 4α(S*)]]-4-[4-[4-[4-[[2-(4-chlorophenyl)-2-[[(4-methyl-4H-1,2,4-triazol-3-yl)thio]methyl]-1,3-dioxolan-4-yl]methoxy]-phenyl]-1-piperazinyl]phenyl]-2,4-dihydro-2-(1-methylpropyl)-3H-1,2,4-triazol-3-one]",effect on body weight at 0.63 mg/kg compared with lower dose,"[1]; 0.63 mg/kg once daily for 8 weeks, free access to feed",more effective in reducing body weight
same,course of body weight reduction (levelling off),"[1]; 0.63 mg/kg once daily, continuous for 8 weeks (curve D)",started to level off after three weeks
same,daily dosage necessary to decrease body weight,"[1]; once daily for 8 weeks (56 days), free access to feed, doses 0.16, 0.31, 0.63 mg/kg tested",at least 0.31 mg/kg
same,mean reduction of body weight,"[2]; maintenance diet from the second period, after 84 days",9%
same,course of body weight reduction (levelling off),[2]; two treatment periods,no body weight reduction levelling off effect was observed
same,course of body weight reduction (levelling off),[3]; 3 w-2 w-3 w and 4 w-4 w-4 w regimens,no body weight reduction levelling off effect was observed
same,mean effect on body weight reduction,"[3]; 3 w-2 w-3 w regimen, day 56",11%
same,mean effect on body weight reduction,"[3]; 4 w-4 w-4 w regimen, day 84",13%
